Results taken from US20220402935A1, “HETEROCYCLIC COMPOUND” (FIMECS, INC., priority 2019, published 2022).

Tests used:
[1] = molecular target: T1, human XIAP_BIR3 domain purified protein (Homo sapiens, UniProt P98170); test: XIAP binding inhibitory activity (HTRF, b-Smac ligand); conditions: for inhibition at 3 µM: concentration of the test compound 3 μM, first symbol of cell, read-out: XIAP binding inhibition rate; for IC50: second symbol of cell, read-out: XIAP binding inhibition IC50 value
T1 construct: purchased R & D
Description: Human XIAP binding inhibitory activity was measured by the Homogeneous Time Resolved Fluorescence (HTRF) method with using commercially available human XIAP_BIR3 domain purified protein (R & D) and as a ligand a Smac N-terminal peptide (AVPIAQK (SEQ ID NO: 1)) (hereinafter referred to as “b-Smac”; Peptide Research Laboratories, Inc.) biotinylated at the C-terminus according to a conventional method.
The HTRF method will be described in detail below.
The test compound diluted with a reaction buffer (25 mM HEPES Buffer containing 100 mM NaCl, 0.1% BSA, and 0.1% triton X-100, pH 7.5) was added to a 384-well white shallow bottom plate (Greiner 784076) at 1 μL/well and flash centrifuged for 30 seconds. Subsequently, human XIAP_BIR3 domain purified protein was diluted with the reaction buffer to obtain a 90 nM sample diluent, and the resultant sample diluent was added to the above-mentioned white superficial plate at 4.5 μL/well and flash centrifuged for 30 seconds. Subsequently, b-Smac diluted to 90 nM with the reaction buffer was added to the above-mentioned white superficial plat at 4.5 μL/well and flash centrifuged for 30 seconds. A mixed solution of Anti-6 HIS-Cryptate (Eu^3+ Cryptate-conjugated mouse monoclonal antibody anti-6 Histidine; cisbio) and Streptavidin-XL^eat (Highgrade XL665-conjugated streptavidin; cisbio) both diluted 100-fold with HTRF detection buffer (cisbio) at a volume ratio of 1:1 was added to the above white superficial plate at 10 μL/well. After flash centrifuging the white shallow bottom plate for 30 seconds, the white shallow bottom plate was left at room temperature for 4 hours or more in the dark. The white superficial plate after being left was subjected to fluorescence intensity measurement (excitation wavelength: 320 nm, fluorescence wavelength: 665 nm and 615 nm) by EnVision (Perkin Elmer). The binding inhibition rate (%) was calculated based on the HTRF ratio in the presence of the test compound to the HTRF ratio in the absence of the test compound (fluorescence intensity at 665 nm/fluorescence intensity at 615 nm).
The XIAP binding inhibition rate (%) of test compounds was evaluated.

IRAK-M = molecular target: T2, IRAK-M (Homo sapiens, UniProt Q9Y616); test: IRAK-M binding inhibitory activity (KINOMEscan active site-dependent competitive assay); parameters: purchased Eurofins Discover X; conditions: for remaining binding at 1 µM: concentration of the test compound 1 μM, first symbol of cell, read-out: IRAK-M binding inhibition activity % Ctrl; for IC50: second symbol of cell, read-out: IRAK-M binding inhibition IC50 value
T2 sequence (Q9Y616 1-596): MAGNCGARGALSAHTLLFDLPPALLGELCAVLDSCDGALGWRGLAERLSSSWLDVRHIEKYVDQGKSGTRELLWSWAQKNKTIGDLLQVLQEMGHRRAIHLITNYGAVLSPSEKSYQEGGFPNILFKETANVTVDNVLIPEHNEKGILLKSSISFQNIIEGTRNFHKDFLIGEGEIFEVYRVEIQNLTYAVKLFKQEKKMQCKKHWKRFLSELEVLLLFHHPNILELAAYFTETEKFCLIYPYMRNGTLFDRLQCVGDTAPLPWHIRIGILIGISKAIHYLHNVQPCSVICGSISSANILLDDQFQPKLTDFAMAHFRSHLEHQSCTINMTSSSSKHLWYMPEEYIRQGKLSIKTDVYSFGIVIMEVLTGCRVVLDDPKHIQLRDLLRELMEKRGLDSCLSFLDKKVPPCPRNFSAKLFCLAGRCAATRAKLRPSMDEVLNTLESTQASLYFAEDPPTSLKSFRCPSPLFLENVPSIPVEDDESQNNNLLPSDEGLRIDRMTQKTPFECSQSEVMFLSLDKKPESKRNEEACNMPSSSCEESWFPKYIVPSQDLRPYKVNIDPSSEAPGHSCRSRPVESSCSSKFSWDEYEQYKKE
Outline: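 Readout given as % Ctrl, with DMSO as 100% and a control compound as 0%, scaling the test compound signal between them. Binding to human IRAK-M was assessed by KINOMEscan competition at the kinase active site.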

T1 sequence (P98170 252-356 limits assumed): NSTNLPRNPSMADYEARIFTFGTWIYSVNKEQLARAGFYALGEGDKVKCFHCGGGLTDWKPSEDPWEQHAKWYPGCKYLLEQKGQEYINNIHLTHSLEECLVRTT

Structure (SMILES)	inhibition at 3 µM [1] [%]	remaining binding at 1 µM (IRAK-M) [%]	IC50 [1] [nM]	IC50 (IRAK-M) [nM]
CN[C@@H](C)C(=O)N[C@H](C(=O)N1CCN(C(=O)c2c(C(=O)N(C)CCOCCOCCOc3cc(CN4CCC(Oc5ccnc6ccsc56)CC4)on3)c3cc(F)ccc3n2C)CC1)[C@H](O)C(C)C [Example 14, 5-fluoro-2-(4-((2S,3R)-3-hydroxy-4-methyl-2-((S)-2-(methylamino)propanamido)pentanoyl)piperazine-1-carbonyl)-N,1-dimethyl-N-(2-(2-(2-((5-((4-(thieno[3,2-b]pyridin-7-yloxy)piperidin-1-yl)methyl)isoxazol-3-yl)oxy)ethoxy)ethoxy)ethyl)-1H-indole-3-carboxamide]		< 25	3000 to 30000	
CN[C@@H](C)C(=O)N[C@H](C(=O)N1CCN(C(=O)c2c(C(=O)NCCOCCOCCOc3cc(CN4CCC(Oc5ccnc6ccsc56)CC4)n(C)n3)c3cc(F)c(F)cc3n2C)CC1)C1CCCCC1 [Example 7, 2-(4-((S)-2-cyclohexyl-2-((S)-2-(methylamino)propanamido)acetyl)piperazine-1-carbonyl)-5,6-difluoro-1-methyl-N-(2-(2-(2-((1-methyl-5-((4-(thieno[3,2-b]pyridin-7-yloxy)piperidin-1-yl)methyl)-1H-pyrazol-3-yl)oxy)ethoxy)ethoxy)ethyl)-1H-indole-3-carboxamide]		25 to 50	300 to 3000	
CN[C@@H](C)C(=O)N[C@H](C(=O)N1CCN(C(=O)c2c(C(=O)NCCOCCOCCOc3cc(C(C)N4CCC(Oc5ccnc6cc(C)sc56)CC4)on3)c3cc(F)c(F)cc3n2C)CC1)C1CCCCC1 (stereo partly drawn) [Example 9, 2-(4-((S)-2-cyclohexyl-2-((S)-2-(methylamino)propanamido)acetyl)piperazine-1-carbonyl)-5,6-difluoro-1-methyl-N-(2-(2-(2-((5-(1-(4-((2-methylthieno[3,2-b]pyridin-7-yl)oxy)piperidin-1-yl)ethyl)isoxazol-3-yl)oxy)ethoxy)ethoxy)ethyl)-1H-indole-3-carboxamide]			300 to 3000	30 to 100
CN[C@@H](C)C(=O)N[C@H](C(=O)N1CCN(C(=O)c2c(C(=O)NCCOCCOCCOc3cc(CN4CCC(Oc5ccnc6ccsc56)CC4)on3)c3cc(F)c(F)cc3n2C)CC1)C1CCCCC1 [Example 5, 2-(4-((S)-2-cyclohexyl-2-((S)-2-(methylamino)propanamido)acetyl)piperazine-1-carbonyl)-5,6-difluoro-1-methyl-N-(2-(2-(2-((5-((4-(thieno[3,2-b]pyridin-7-yloxy)piperidin-1-yl)methyl)isoxazol-3-yl)oxy)ethoxy)ethoxy)ethyl)-1H-indole-3-carboxamide]			300 to 3000	300 to 1000
CN[C@@H](C)C(=O)N[C@H](C(=O)N1CCN(C(=O)c2c(C(=O)NCCOCCOCCOCCOc3cc(CN4CCC(Oc5ccnc6ccsc56)CC4)on3)c3cc(F)c(F)cc3n2C)CC1)C1CCCCC1 [Example 6, 2-(4-((S)-2-cyclohexyl-2-((S)-2-(methylamino)propanamido)acetyl)piperazine-1-carbonyl)-5,6-difluoro-1-methyl-N-(2-(2-(2-(2-((5-((4-(thieno[3,2-b]pyridin-7-yloxy)piperidin-1-yl)methyl)isoxazol-3-yl)oxy)ethoxy)ethoxy)ethoxy)ethyl)-1H-indole-3-carboxamide]			300 to 3000	100 to 300
CN[C@@H](C)C(=O)N[C@H](C(=O)N1CCN(C(=O)c2cc3cc(F)c(F)cc3n2CC(=O)N2CCOC[C@@H]2COc2cc(CN3CCC(Oc4ccnc5ccsc45)CC3)on2)CC1)C1CCCCC1 [Example 45, (S)-N-((S)-1-cyclohexyl-2-(4-(5,6-difluoro-1-(2-oxo-2-((R)-3-(((5-((4-(thieno[3,2-b]pyridin-7-yloxy)piperidin-1-yl)methyl)isoxazol-3-yl)oxy)methyl)morpholino)ethyl)-1H-indole-2-carbonyl)piperazin-1-yl)-2-oxoethyl)-2-(methylamino)propanamide]		25 to 50	3000 to 30000	

Further lines, results first:

inhibition at 3 µM [1] [%]	remaining binding at 1 µM (IRAK-M) [%]	IC50 [1] [nM]	IC50 (IRAK-M) [nM]	Structure (SMILES)
25 to 50	25 to 50			CN[C@@H](C)C(=O)N[C@H](C(=O)N1CCN(C(=O)c2c(OCCOCCOCCOCCOc3cc(CN4CCC(Oc5ccnc6ccsc56)CC4)on3)c3cc(F)c(F)cc3n2C)CC1)C1CCCCC1 [Example 23, (S)-N-((S)-1-cyclohexyl-2-(4-(5,6-difluoro-1-methyl-3-(2-(2-(2-(2-((5-((4-(thieno[3,2-b]pyridin-7-yloxy)piperidin-1-yl)methyl)isoxazol-3-yl)oxy)ethoxy)ethoxy)ethoxy)ethoxy)-1H-indole-2-carbonyl)piperazin-1-yl)-2-oxoethyl)-2-(methylamino)propanamide]
> 25			1000 to 3000	CN[C@@H](C)C(=O)N[C@H](C(=O)N1CCN(C(=O)c2cc3cc(F)ccc3n2CC(=O)N2CCOC[C@H]2COc2cc(CN3CCC(Oc4ccnc5ccsc45)CC3)on2)[C@@H](C)C1)C1CCCCC1 [Example 47, (S)-N-((S)-1-cyclohexyl-2-((S)-4-(5-fluoro-1-(2-oxo-2-((S)-3-(((5-((4-(thieno[3,2-b]pyridin-7-yloxy)piperidin-1-yl)methyl)isoxazol-3-yl)oxy)methyl)morpholino)ethyl)-1H-indole-2-carbonyl)-3-methylpiperazin-1-yl)-2-oxoethyl)-2-(methylamino)propanamide]
> 25			100 to 300	CN[C@@H](C)C(=O)N[C@H](C(=O)N1CCN(C(=O)c2cc3cc(F)ccc3n2CC(=O)N2C[C@@H](O)C[C@H]2COc2cc(CN3CCC(Oc4ccnc5ccsc45)CC3)on2)[C@@H](C)C1)C1CCCCC1 [Example 42, (S)-N-((S)-1-cyclohexyl-2-((S)-4-(5-fluoro-1-(2-((2S,4S)-4-hydroxy-2-(((5-((4-(thieno[3,2-b]pyridin-7-yloxy)piperidin-1-yl)methyl)isoxazol-3-yl)oxy)methyl)pyrrolidin-1-yl)-2-oxoethyl)-1H-indole-2-carbonyl)-3-methylpiperazin-1-yl)-2-oxoethyl)-2-(methylamino)propanamide]
		300 to 3000	300 to 1000	CN[C@@H](C)C(=O)N[C@H](C(=O)N1CCN(C(=O)c2c(C(=O)NCCOCCOc3cc(CN4CCC(Oc5ccnc6ccsc56)CC4)on3)c3cc(F)c(F)cc3n2C)CC1)C1CCCCC1 [Example 4, 2-(4-((S)-2-cyclohexyl-2-((S)-2-(methylamino)propanamido)acetyl)piperazine-1-carbonyl)-5,6-difluoro-1-methyl-N-(2-(2-((5-((4-(thieno[3,2-b]pyridin-7-yloxy)piperidin-1-yl)methyl)isoxazol-3-yl)oxy)ethoxy)ethyl)-1H-indole-3-carboxamide]
	25 to 50	300 to 3000		CN[C@@H](C)C(=O)N[C@H](C(=O)N1CCN(C(=O)c2c(C(=O)NCCOCCOCCOc3cc(CN4CCC(Oc5ccnc6ccsc56)CC4)on3)c3cc(F)c(F)cc3n2C)C[C@H]1C)C1CCCCC1 [Example 10, 2-((R)-4-((S)-2-cyclohexyl-2-((S)-2-(methylamino)propanamido)acetyl)-3-methylpiperazine-1-carbonyl)-5,6-difluoro-1-methyl-N-(2-(2-(2-((5-((4-(thieno[3,2-b]pyridin-7-yloxy)piperidin-1-yl)methyl)isoxazol-3-yl)oxy)ethoxy)ethoxy)ethyl)-1H-indole-3-carboxamide]
